The supplement of paper PMC5908809

Assays:
[1] = tested on: NKL (IL-2 2.5 ng/mL); assay: percent inhibition of viability; higher = more inhibition; details: 72 h
[2] = tested on: IMC-1 (IL-2 20 ng/mL); assay: as above; details: 72 h
[3] = tested on: normal primary NK cells, pool 1 (3 donors) (IL-2 2.5 ng/mL); assay: as above; details: 72 h
[4] = tested on: normal primary NK cells, pool 3 (3 donors) (IL-2 2.5 ng/mL); assay: as above; details: 72 h
[5] = tested on: normal primary NK cells, pool 2 (3 donors) (IL-2 2.5 ng/mL); assay: as above; details: 72 h
[6] = tested on: KAI3 (IL-2 2.5 ng/mL); assay: as above; details: 72 h
[7] = tested on: NK-YS (IL-2 2.5 ng/mL); assay: as above; details: 72 h
[8] = tested on: normal primary NK cells, pool 1 (3 donors), resting (IL-2 0 ng/mL); assay: as above; details: 72 h
[9] = tested on: KHYG-1 (IL-2 2.5 ng/mL); assay: as above; details: 72 h
[10] = tested on: NK-92 (IL-2 2.5 ng/mL); assay: as above; details: 72 h
[11] = tested on: YT (IL-2 2.5 ng/mL); assay: as above; details: 72 h
[12] = tested on: SNK-6 (IL-2 2.5 ng/mL); assay: as above; details: 72 h
[13] = tested on: DERL-7 (IL-2 2.5 ng/mL); assay: as above; details: 72 h
[14] = tested on: normal NK cells expanded with K562-aAPC; assay: as above; details: 72 h, IL-2 2.5 ng/mL
Description: (§1)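 Drug sensitivity and resistance testing on K562-aAPC-expanded normal NK cells: 5 concentrations (10-fold steps over a 10,000-fold range), 72 h at 37 °C, viability by CellTiter-Glo normalised to DMSO and benzethonium chloride controls; DSS from the fitted curve.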

[15] = tested on: normal NK cells expanded with K562-aAPC; assay: drug sensitivity score (DSS) (DSS units); higher = more sensitive; extreme values may be limits of the assay; details: 72 h; IL-2 2.5 ng/mL
Description: as §1

[16] = tested on: NKL (IL-2 2.5 ng/mL); assay: as above; details: 72 h
[17] = tested on: IMC-1 (IL-2 20 ng/mL); assay: as above; details: 72 h
[18] = tested on: normal primary NK cells, pool 1 (3 donors) (IL-2 2.5 ng/mL); assay: as above; details: 72 h
[19] = tested on: normal primary NK cells, pool 3 (3 donors) (IL-2 2.5 ng/mL); assay: as above; details: 72 h
[20] = tested on: normal primary NK cells, pool 2 (3 donors) (IL-2 2.5 ng/mL); assay: as above; details: 72 h
[21] = tested on: KAI3 (IL-2 2.5 ng/mL); assay: as above; details: 72 h
[22] = tested on: NK-YS (IL-2 2.5 ng/mL); assay: as above; details: 72 h
[23] = tested on: normal primary NK cells, pool 1 (3 donors), resting (IL-2 0 ng/mL); assay: as above; details: 72 h
[24] = tested on: KHYG-1 (IL-2 2.5 ng/mL); assay: as above; details: 72 h
[25] = tested on: NK-92 (IL-2 2.5 ng/mL); assay: as above; details: 72 h
[26] = tested on: YT (IL-2 2.5 ng/mL); assay: as above; details: 72 h
[27] = tested on: SNK-6 (IL-2 2.5 ng/mL); assay: as above; details: 72 h
[28] = tested on: DERL-7 (IL-2 2.5 ng/mL); assay: as above; details: 72 h

Nc1ncn([C@@H]2O[C@H](CO)[C@@H](O)[C@H]2O)c(=O)n1 [Azacitidine] (max concentration tested 10000 nM)
percent inhibition of viability [%]
Details	1 nM	10 nM	100 nM	1000 nM	10000 nM
[1]	-16.7	-17.1	-14.1	-11.2	65.5
[2]	-6.44	-3.39	2.53	-7.92	82.7
[3]	-2.2	-10.3	1.35	9.04	30.6
[4]	-6.45	-3.68	-2.24	-3.82	25.5
[5]	-6.68	-8.85	-5.14	-3.32	29.2
[6]	-2.09	-1.87	2.62	26.2	60.5
[7]	-2.67	-1.33	3.5	15.9	67.6
[8]	-3.24	-12.3	5.31	4.81	27.4
[9]	-4.59	-3.23	2.46	23.2	89.6
[10]	-4.17	-12.4	-0.66	23.1	83.7
[11]	-1.86	-3.15	-1.98	-0.51	28
[12]	-3.1	1	15.7	47.1	67.8
[13]	2.03	3.15	2.51	24.5	85.6
[14]	-4.42	-10.9	-6.84	4.72	60.3

Details	drug sensitivity score
[15]	4
[16]	2.92
[17]	4.03
[18]	2.65
[19]	0.77
[20]	1.04
[21]	6.42
[22]	6.22
[23]	1.88
[24]	8.51
[25]	8.11
[26]	1.12
[27]	10.7
[28]	8.4

CC[C@@H]1C(=O)N(C)c2cnc(Nc3ccc(C(=O)NC4CCN(C)CC4)cc3OC)nc2N1C1CCCC1 [BI 2536] (max concentration tested 1000 nM)
percent inhibition of viability [%]
Details	0.1 nM	1 nM	10 nM	100 nM	1000 nM
[1]	-16.1	-17.7	34.5	66.8	64.5
[2]	-3.03	-6.74	26.6	96.7	95.2
[3]	-8.51	7.02	-5.03	-6.42	36.1
[4]	-15.6	-13.3	-7.87	-2.57	41.2
[5]	-11.8	-7.85	-1.58	7	58.2
[6]	-2.84	1.84	32	55.7	52.9
[7]	1.37	3.08	22.7	66.2	58.4
[8]	4.96	13.2	-4.79	-10.2	31.4
[9]	-0.33	-0.33	11.5	101	102
[10]	-10.3	-5.85	41.7	99.6	91.2
[11]	-0.96	-1.95	5.23	77.8	74.1
[12]	3.37	2.93	50.7	61.7	48.1
[13]	-1.78	1.66	56.8	99.1	96.4
[14]	1.03	0.31	20.1	60.1	67.4

Details	drug sensitivity score
[15]	13.5
[16]	16.6
[17]	21.4
[18]	1.36
[19]	1.86
[20]	4.32
[21]	14.1
[22]	15.2
[23]	0.98
[24]	19.9
[25]	23.4
[26]	15
[27]	17.8
[28]	24.6
